In US9173884B2, “Inhibitors of phosphodiesterase 11 (PDE11)” (TRUSTEES OF BOSTON COLLEGE, priority 2011, dated 2015):

Legend:
[1] = test system: chronic lymphocytic leukemia cells from a first leukemia patient; test: Apoptosis of chronic lymphocytic leukemia cells, first patient; type: cell-based, human; set-up: % apoptosis: dose or concentration left out as unconfirmed; conditions: for effect on apoptosis, in words: first patient, high background apoptosis
Source text: (§1) In collaboration with other researchers, the effect of different PDE inhibitors on chronic lymphocytic leukemia cells was investigated. The lymphocytic leukemia cells were obtained from individual patients and cannot be maintained in cell culture.

[2] = test system: chronic lymphocytic leukemia cells from a second leukemia patient; test: Apoptosis of chronic lymphocytic leukemia cells, second patient (JM168); type: cell-based, human
Source text: as §1

[3] = test system: normal T cells; test: Apoptosis of normal T cells; type: cell-based; conditions: for cell viability of normal T cells: with or without rolipram
[4] = test system: JVM-2 cells; test: Apoptosis of JVM-2 B cell leukemia cell line; type: cell-based; conditions: for effect on apoptosis, in words: JVM-2
[5] = test system: REC-1 cells; test: Apoptosis of REC-1 B cell leukemia cell line; type: cell-based; conditions: for effect on apoptosis, in words: REC-1
[6] = test system: chronic lymphocytic leukemia cells from a third leukemia patient; test: Apoptosis of chronic lymphocytic leukemia cells, third patient (JM167); type: cell-based, human
Source text: as §1

[7] = target: human PDE11A4 (Homo sapiens (Human), UniProt Q9HCR9); test: biochemical
human PDE11A4, sequence (Q9HCR9 whole entry): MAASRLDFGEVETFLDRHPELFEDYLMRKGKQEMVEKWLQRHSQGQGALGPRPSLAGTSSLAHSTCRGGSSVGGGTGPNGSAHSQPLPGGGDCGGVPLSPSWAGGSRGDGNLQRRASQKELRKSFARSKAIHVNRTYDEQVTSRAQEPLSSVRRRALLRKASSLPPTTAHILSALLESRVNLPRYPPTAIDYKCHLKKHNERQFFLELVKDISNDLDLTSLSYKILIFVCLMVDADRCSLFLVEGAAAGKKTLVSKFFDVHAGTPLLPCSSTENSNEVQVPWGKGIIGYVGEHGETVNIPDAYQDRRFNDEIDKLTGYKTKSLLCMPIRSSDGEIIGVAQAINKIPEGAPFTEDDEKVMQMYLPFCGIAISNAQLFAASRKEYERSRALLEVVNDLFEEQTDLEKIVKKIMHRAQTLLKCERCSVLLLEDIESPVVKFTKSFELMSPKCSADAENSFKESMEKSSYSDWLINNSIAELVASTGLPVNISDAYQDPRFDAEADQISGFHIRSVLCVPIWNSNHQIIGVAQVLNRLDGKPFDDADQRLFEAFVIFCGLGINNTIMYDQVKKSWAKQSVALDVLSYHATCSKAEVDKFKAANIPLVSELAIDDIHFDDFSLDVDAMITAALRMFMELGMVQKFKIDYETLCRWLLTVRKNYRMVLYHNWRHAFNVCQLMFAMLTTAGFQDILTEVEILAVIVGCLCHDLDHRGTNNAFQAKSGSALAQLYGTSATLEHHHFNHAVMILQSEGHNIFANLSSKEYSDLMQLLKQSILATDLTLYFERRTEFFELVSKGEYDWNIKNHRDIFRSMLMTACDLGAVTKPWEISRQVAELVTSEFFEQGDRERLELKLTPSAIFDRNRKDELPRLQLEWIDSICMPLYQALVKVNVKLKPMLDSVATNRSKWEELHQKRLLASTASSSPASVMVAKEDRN

[8] = target: T1, PDE10A1 (Homo sapiens (Human), UniProt Q9Y233); test: biochemical
T1 sequence (Q9Y233 other isoform, or with tags, fused parts or gaps): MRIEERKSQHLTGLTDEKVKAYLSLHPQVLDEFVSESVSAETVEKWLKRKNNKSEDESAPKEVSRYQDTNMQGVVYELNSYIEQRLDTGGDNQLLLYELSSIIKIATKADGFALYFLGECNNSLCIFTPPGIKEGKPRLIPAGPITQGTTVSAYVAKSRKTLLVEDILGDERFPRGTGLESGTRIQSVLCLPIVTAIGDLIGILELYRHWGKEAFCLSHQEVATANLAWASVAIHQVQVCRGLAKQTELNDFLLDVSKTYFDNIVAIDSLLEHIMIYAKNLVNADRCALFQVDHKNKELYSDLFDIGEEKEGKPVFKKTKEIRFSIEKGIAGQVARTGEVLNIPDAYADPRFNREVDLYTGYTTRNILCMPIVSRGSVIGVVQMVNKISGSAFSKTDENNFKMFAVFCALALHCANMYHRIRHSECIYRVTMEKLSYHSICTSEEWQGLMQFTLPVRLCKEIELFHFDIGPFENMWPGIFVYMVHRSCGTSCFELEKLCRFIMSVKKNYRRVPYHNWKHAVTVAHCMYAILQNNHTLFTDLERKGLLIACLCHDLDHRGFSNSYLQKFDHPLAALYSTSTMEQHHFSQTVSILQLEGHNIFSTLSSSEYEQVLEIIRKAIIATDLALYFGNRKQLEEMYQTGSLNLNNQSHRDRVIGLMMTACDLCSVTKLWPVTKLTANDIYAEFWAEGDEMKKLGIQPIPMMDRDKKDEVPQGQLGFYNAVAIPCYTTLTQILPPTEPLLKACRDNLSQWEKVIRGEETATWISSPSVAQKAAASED

[9] = target: PDE5A1 (Homo sapiens (Human), UniProt O76074); test: In vitro enzyme assay, PDE5; type: biochemical; conditions: PDE5A, 500 nM cGMP
[10] = target: PDE6C (Homo sapiens (Human), UniProt P51160); test: In vitro enzyme assay, PDE6; type: biochemical; conditions: […] cGMP
PDE6C, sequence (P51160 whole entry): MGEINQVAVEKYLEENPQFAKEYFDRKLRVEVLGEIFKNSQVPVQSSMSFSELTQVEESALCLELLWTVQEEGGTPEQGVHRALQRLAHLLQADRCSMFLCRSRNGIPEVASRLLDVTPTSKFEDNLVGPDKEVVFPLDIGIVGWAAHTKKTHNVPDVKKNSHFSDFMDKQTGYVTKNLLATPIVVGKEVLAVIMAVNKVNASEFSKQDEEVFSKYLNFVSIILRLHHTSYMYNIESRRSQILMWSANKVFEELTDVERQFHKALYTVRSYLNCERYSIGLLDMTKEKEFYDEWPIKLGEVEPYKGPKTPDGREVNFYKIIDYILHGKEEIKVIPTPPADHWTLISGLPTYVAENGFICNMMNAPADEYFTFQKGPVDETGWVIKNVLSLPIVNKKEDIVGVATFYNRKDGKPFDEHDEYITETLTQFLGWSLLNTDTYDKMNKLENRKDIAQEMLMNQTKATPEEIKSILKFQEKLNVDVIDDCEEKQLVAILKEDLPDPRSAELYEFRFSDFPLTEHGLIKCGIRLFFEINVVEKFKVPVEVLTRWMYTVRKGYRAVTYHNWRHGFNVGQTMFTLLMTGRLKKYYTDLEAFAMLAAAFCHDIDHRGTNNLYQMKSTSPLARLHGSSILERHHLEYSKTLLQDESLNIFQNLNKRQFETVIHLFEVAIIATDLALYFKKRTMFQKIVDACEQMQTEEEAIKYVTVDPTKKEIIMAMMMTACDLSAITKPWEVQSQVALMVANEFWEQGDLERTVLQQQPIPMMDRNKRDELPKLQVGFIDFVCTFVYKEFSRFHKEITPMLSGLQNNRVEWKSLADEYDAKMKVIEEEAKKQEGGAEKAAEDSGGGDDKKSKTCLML

[11] = target: PDE7A (Homo sapiens (Human), UniProt Q13946); test: In vitro enzyme assay, PDE7; type: biochemical; conditions: 15 nM cAMP
PDE7A, sequence (Q13946 whole entry): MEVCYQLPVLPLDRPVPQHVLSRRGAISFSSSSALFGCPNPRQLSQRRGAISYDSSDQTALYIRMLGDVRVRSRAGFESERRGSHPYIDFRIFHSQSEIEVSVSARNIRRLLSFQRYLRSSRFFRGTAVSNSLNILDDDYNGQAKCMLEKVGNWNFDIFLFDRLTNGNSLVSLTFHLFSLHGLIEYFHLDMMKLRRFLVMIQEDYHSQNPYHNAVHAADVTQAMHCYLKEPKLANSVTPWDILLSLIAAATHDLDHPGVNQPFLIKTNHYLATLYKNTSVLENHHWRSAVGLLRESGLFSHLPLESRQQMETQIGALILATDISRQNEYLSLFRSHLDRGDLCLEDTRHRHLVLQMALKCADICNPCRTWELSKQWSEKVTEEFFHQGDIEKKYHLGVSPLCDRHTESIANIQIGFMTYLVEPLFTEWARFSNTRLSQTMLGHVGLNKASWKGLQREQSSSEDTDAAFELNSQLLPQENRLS

[12] = target: T1, PDE10A1; test: In vitro enzyme assay, PDE10; conditions: read-out: IC50 PDE10; PDE10A, 30 nM cAMP
[13] = test system: H295R cells; test: cAMP assay in H295R adrenocortical cells; type: cell-based, human; conditions: 20 μM, 2 h, absence or presence of 10 μM forskolin
Experimental: (§2) Human NCI-H295R cells were maintained as described (33). HeLa cells were maintained in DMEM with 10% FBS. 90% confluent cells in 12-well dishes were incubated in serum-starved media for 1 h, then in 0.5 ml serum-starved media with 20 µM compounds or 0.2% DMSO for 2 h in the absence or presence of 10 μM forskolin (Sigma Aldrich). Media was collected and cAMP levels were measured as described (33), using a cAMP ELISA kit (Enzo). cAMP levels were normalized to protein content measured using a BCA Protein Assay Kit (Pierce). Immunoblot analysis of protein lysates was performed as described (34), using phospho-CREB(9198), Akt(4685), or CREB(9197) primary antibodies (Cell Signaling Technology) and goat anti-rabbit IgG-HRP secondary antibody (sc-2030, Santa Cruz).

[14] = test system: H295R cells; test: Cortisol assay in H295R cells; type: cell-based, human; conditions: 20 μM, 24 h, forskolin
Experimental: H295R cells were treated with compounds as described in the cAMP assays, for 24 h. Media was collected and cortisol content was quantified using a Cortisol EIA Kit (Oxford Biomedical Research). Cortisol levels were normalized to protein concentrations in cell extracts, as described above.

[15] = test system: H295R cells; test: ATF-1 phosphorylation immunoblot in H295R cells; type: cell-based, human
Experimental: as §2

[16] = test system: HeLa cells; test: cAMP assay in HeLa cells; type: cell-based; conditions: as for H295R cells (20 μM)
Experimental: as §2

[17] = test system: HeLa cells; test: CREB phosphorylation immunoblot in HeLa cells; type: cell-based; conditions: as for H295R cells (20 μM)
Experimental: as §2

[18] = compound 20 μM plus Rolipram (20 μM)

Cn1c(NC(=O)c2ccccc2NC(=O)c2ccccc2)nc2ccccc21 [BC11-4]
% apoptosis ([1]; compound): 66.9%
% apoptosis ([1]; compound alone (DMSO)): 70.1%
effect on apoptosis, in words [1]: increase in apoptosis
% apoptosis ([2]; BC11-4 0.1 μM, Roli 0 μM): 6.65%
% apoptosis ([2]; BC11-4 0.1 μM, Roli 0.2 μM): 10.4%
% apoptosis ([2]; BC11-4 0.1 μM, Roli 2.0 μM): 21.2%
% apoptosis ([2]; BC11-4 0.1 μM, Roli 20 μM): 28.8%
% apoptosis ([2]; BC11-4 1.0 μM, Roli 0 μM): 4.71%
% apoptosis ([2]; BC11-4 1.0 μM, Roli 0.2 μM): 10.8%
% apoptosis ([2]; BC11-4 1.0 μM, Roli 2.0 μM): 20.8%
% apoptosis ([2]; BC11-4 1.0 μM, Roli 20 μM): 29.6%
% apoptosis ([2]; BC11-4 10.0 μM, Roli 0 μM): 5.78%
% apoptosis ([2]; BC11-4 10.0 μM, Roli 0.2 μM): 4.93%
% apoptosis ([2]; BC11-4 10.0 μM, Roli 2.0 μM): 6.72%
% apoptosis ([2]; BC11-4 10.0 μM, Roli 20 μM): 15.8%
response of cells (apoptosis), in words ([2]; second patient): did not respond
% apoptosis of normal T cells ([3]; compound 20 μM alone (DMSO)): 14.3%
% apoptosis of normal T cells [3, 18]: 13.9%
cell viability of normal T cells [3]: did not affect cell viability
Apoptosis (%) JVM-2 Cells (B cell leukemia) ([4]; 40 μM): 32.3%
effect on apoptosis, in words [4]: increased apoptosis
Apoptosis (%) REC-1 Cells (B cell leukemia) ([5]; 40 μM): 100%
effect on apoptosis, in words [5]: increased apoptosis

C=CCSc1nnc2n(-c3ccccc3)c(=O)c3c(C)c(C)sc3n12 [BC11-8]
% apoptosis ([1]; compound): 63.3%
% apoptosis ([1]; compound alone (DMSO)): 60.1%
effect on apoptosis, in words [1]: increase in apoptosis
% apoptosis ([6]; BC11-8 0.1 μM, Roli 0 μM): 6.31%
% apoptosis ([6]; BC11-8 0.1 μM, Roli 0.2 μM): 11.7%
% apoptosis ([6]; BC11-8 0.1 μM, Roli 2.0 μM): 22.7%
% apoptosis ([6]; BC11-8 0.1 μM, Roli 20 μM): 28.2%
% apoptosis ([6]; BC11-8 1.0 μM, Roli 0 μM): 7.63%
% apoptosis ([6]; BC11-8 1.0 μM, Roli 0.2 μM): 13.1%
% apoptosis ([6]; BC11-8 1.0 μM, Roli 2.0 μM): 19.5%
% apoptosis ([6]; BC11-8 1.0 μM, Roli 20 μM): 26.7%
% apoptosis ([6]; BC11-8 10.0 μM, Roli 0 μM): 21.8%
% apoptosis ([6]; BC11-8 10.0 μM, Roli 0.2 μM): 28.5%
% apoptosis ([6]; BC11-8 10.0 μM, Roli 2.0 μM): 40.1%
% apoptosis ([6]; BC11-8 10.0 μM, Roli 20 μM): 41.5%
effect on apoptosis, in words ([6]; third patient, additive with rolipram): increased apoptosis
% apoptosis of normal T cells ([3]; compound 20 μM alone (DMSO)): 10.3%
% apoptosis of normal T cells [3, 18]: 14.7%
cell viability of normal T cells [3]: did not affect cell viability
Apoptosis (%) JVM-2 Cells (B cell leukemia) ([4]; 40 μM): 28.8%
effect on apoptosis, in words [4]: increased apoptosis
Apoptosis (%) REC-1 Cells (B cell leukemia) ([5]; 40 μM): 66.2%
effect on apoptosis, in words [5]: increased apoptosis
IC50 [7]: 0.05 µM
IC50 [8]: 0.2 µM

CCN(CC)C(=O)c1cc(-c2cccs2)nc2c1c(C)nn2-c1ccccc1C [BC11-15]
IC50 [9]: 43 µM
IC50 [10]: 25 µM
IC50 [11]: 43 µM
IC50 [12]: 35 µM

O=c1nc2sc3ccccc3n2c(=O)n1-c1ccccc1 [BC11-19]
cAMP levels in H295R cells [13]: consistently elevates
cortisol production by H295R cells [14]: consistently elevates

CCCSc1nc2c(c(=O)n1-c1ccccc1)SCC2 [BC11-38]
cAMP levels in H295R cells [13]: significantly increased
cortisol production by H295R cells [14]: significantly increased
phosphorylation of ATF1 [15]: PDE11A-specific increase
cAMP levels in HeLa cells [16]: do not increase
CREB phosphorylation in HeLa cells [17]: do not increase

COc1ccc(C2CNC(=O)C2)cc1OC1CCCC1 (stereo not drawn) [Rolipram, rolipram, reference compound]
% apoptosis ([1]; compound alone (DMSO)): 46.7%
effect on apoptosis, in words [1]: not affected
% apoptosis ([2]; Roli 0.2 μM, BC11-4 0 μM): 12.7%
% apoptosis ([2]; Roli 2.0 μM, BC11-4 0 μM): 24.9%
% apoptosis ([2]; Roli 20 μM, BC11-4 0 μM): 33.8%
% apoptosis ([6]; Roli 0.2 μM, BC11-8 0 μM): 13.2%
% apoptosis ([6]; Roli 2.0 μM, BC11-8 0 μM): 23.5%
% apoptosis ([6]; Roli 20 μM, BC11-8 0 μM): 29.9%
% apoptosis of normal T cells ([3]; compound 20 μM alone (DMSO)): 9.4%
Apoptosis (%) JVM-2 Cells (B cell leukemia) ([4]; 20 μM): 18.5%
effect on apoptosis, in words [4]: not affected
Apoptosis (%) REC-1 Cells (B cell leukemia) ([5]; 20 μM): 56.7%
effect on apoptosis, in words [5]: not affected
